Several values for one entry are separate records, joined by “and”; a condition that tells them apart may be missing. Equal entries are not always repeated. Structures can show the parent of a compound that is named as a salt.
Molecular target: T1, recombinant human β tryptase (Homo sapiens, UniProt P20231)
T1 construct: host or cells: yeast cells
Assay: Tryptase primary screen (chromogenic assay), IC50 and Ki determination
Assay type: biochemical
Conditions: Tryptase Ki, substrate S2366 0.5 mM (2×Km), room temperature; Ki=IC50/(1+[Substrate]/Km)
Description: Tryptase inhibition activity is confirmed using either isolated human lung tryptase or recombinant human β tryptase expressed in yeast cells. Essentially equivalent results are obtained using isolated native enzyme or the expressed enzyme. The assay procedure employs a 96 well microplate (Costar 3590) using L-pyroglutamyl-L-prolyl-L-arginine-para-nitroanilide (S2366: Quadratech) as substrate (essentially as described by McEuen et. al. Biochem Pharm, 1996, 52, pages 331-340). Assays are performed at room temperature using 0.5 mM substrate (2×Km) and the microplate is read on a microplate reader (Beckman Biomek Plate reader) at 405 nm wavelength.
Materials and Methods for Tryptase primary screen (Chromogenic Assay)
S2366 (Stock solutions of 2.5 mM).
Purified recombinant beta Tryptase Stocks of 310 μg/mL.
• Add 60 μL of diluted substrate (final concentration of 500 μM in assay buffer) to each well • Add compound in duplicates, final concentration of 20 μM, volume 20 μL • Add enzyme at a final concentration of 50 ng/mL in a volume of 20 μL • Total volume for each well is 100 μL • Agitate briefly to mix and incubate at room temp in the dark for 30 minutes • Read absorbencies at […]
Each plate has the following controls: • Totals: 60 μL of substrate, 20 μL of buffer (with 0.2% final concentration of DMSO), • 20 μL of enzyme • Non-specific: 60 μL of substrate, 40 μL of buffer (with 0.2% DMSO) • Totals: 60 μL of substrate, 20 μL of buffer (No DMSO), 20 μL of enzyme • Non-specific: 60 μL of substrate, 40 μL of buffer (No DMSO)
The protocol is essentially the same as above except that the compound is added in duplicates at the following final concentrations: 0.01, 0.03, 0.1, 0.3, 1, 3, 10 μM (All dilutions carried out manually). For every assay, whether single point or IC50 determination, a standard compound is used to derive IC50 for comparison. From the IC50 value, the Ki can be calculated using the following formula: Ki=IC50/(1+[Substrate]/Km).

T1 sequence (P20231 31-275): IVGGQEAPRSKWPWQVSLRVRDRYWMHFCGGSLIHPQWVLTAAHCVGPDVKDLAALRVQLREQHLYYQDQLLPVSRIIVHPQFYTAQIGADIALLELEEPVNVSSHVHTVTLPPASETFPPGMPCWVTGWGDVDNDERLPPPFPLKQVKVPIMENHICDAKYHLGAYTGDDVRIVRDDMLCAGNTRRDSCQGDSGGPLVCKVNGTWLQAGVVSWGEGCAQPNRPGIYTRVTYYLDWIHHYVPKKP

Going from `COCCn1cc(C(=O)N2CCC(c3cc(CN)ccc3F)CC2)c2cc(Cl)cc(C)c21` [Example 1, [4-(5-Aminomethyl-2-fluoro-phenyl)-piperidin-1-yl]-[5-chloro-1-(2-methoxy-ethyl)-7-methyl-1H-indol-3-yl]-methanone hydrochloride] to `COCCn1cc(C(=O)N2CCC(c3cc(CN)ccc3F)CC2)c2cc(F)cc(C)c21` [Example 3, [4-(5-Aminomethyl-2-fluoro-phenyl)-piperidin-1-yl]-[5-fluoro-1-(2-methoxy-ethyl)-7-methyl-1H-indol-3-yl]-methanone hydrochloride], the Ki falls from 116 nM to 35 nM (3.3-fold).

First: COCCn1cc(C(=O)N2CCC(c3cc(CN)ccc3F)CC2)c2cc(OC)c(OC)cc21 [Example 20, [4-(5-Aminomethyl-2-fluoro-phenyl)-piperidin-1-yl]-[5,6-dimethoxy-1-(2-methoxy-ethyl)-1H-indol-3-yl]-methanone hydrochloride]
Second: COCCn1cc(C(=O)N2CCC(c3cc(CN)ccc3F)CC2)c2c(F)cc(F)cc21 [Example 18, [4-(5-Aminomethyl-2-fluoro-phenyl)-piperidin-1-yl]-[4,6-difluoro-1-(2-methoxy-ethyl)-1H-indol-3-yl]-methanone hydrochloride]
The Ki of the first is 2.1-fold lower: 90 nM for the first, 192 nM for the second. The first binds more tightly here.

First: COCCn1cc(C(=O)N2CCC(c3cc(CN)ccc3F)CC2)c2c(C)ccc(F)c21 [Example 15, [4-(5-Aminomethyl-2-fluoro-phenyl)-piperidin-1-yl]-[7-fluoro-1-(2-methoxy-ethyl)-4-methyl-1H-indol-3-yl]-methanone hydrochloride]
Second: COCCn1cc(C(=O)N2CCC(c3cc(CN)ccc3F)CC2)c2c(F)ccc(C)c21 [Example 4, [4-(5-Aminomethyl-2-fluoro-phenyl)-piperidin-1-yl]-[4-fluoro-1-(2-methoxy-ethyl)-7-methyl-1H-indol-3-yl]-methanone hydrochloride]
The Ki of the first is 1.7-fold higher: 45 nM for the first, 26 nM for the second. The second binds more tightly here.

Compared with `COCCn1cc(C(=O)N2CCC(c3cc(CN)ccc3F)CC2)c2c(C(F)(F)F)ccc(F)c21` [Example 13, [4-(5-Aminomethyl-2-fluoro-phenyl)-piperidin-1-yl]-[7-fluoro-1-(2-methoxy-ethyl)-4-trifluoromethyl-1H-indol-3-yl]-methanone hydrochloride], `COCCn1cc(C(=O)N2CCC(c3cc(CN)ccc3F)CC2)c2c(C(F)(F)F)ccc(OC)c21` [Example 14, [4-(5-Aminomethyl-2-fluoro-phenyl)-piperidin-1-yl]-[7-methoxy-1-(2-methoxy-ethyl)-4-trifluoromethyl-1H-indol-3-yl]-methanone hydrochloride] is 2.7-fold lower in Ki: 129 nM for the first, 48 nM for the second.

Compared with `COCCn1cc(C(=O)N2CCC(c3cc(CN)ccc3F)CC2)c2c(F)c(F)ccc21` [Example 19, [4-(5-Aminomethyl-2-fluoro-phenyl)-piperidin-1-yl]-[4,5-difluoro-1-(2-methoxy-ethyl)-1H-indol-3-yl]-methanone hydrochloride], `COCCn1cc(C(=O)N2CCC(c3cc(CN)ccc3F)CC2)c2ccc(F)c(C)c21` [Example 2, [4-(5-Aminomethyl-2-fluoro-phenyl)-piperidin-1-yl]-[6-fluoro-1-(2-methoxy-ethyl)-7-methyl-1H-indol-3-yl]-methanone hydrochloride] is 3.2-fold lower in Ki: 142 nM for the first, 45 nM for the second.

Compared with `COCCn1cc(C(=O)N2CCC(c3cc(CN)ccc3F)CC2)c2c(Cl)cc(Cl)cc21` [Example 16, [4-(5-Aminomethyl-2-fluoro-phenyl)-piperidin-1-yl]-[4,6-dichloro-1-(2-methoxy-ethyl)-1H-indol-3-yl]-methanone hydrochloride], `COCCn1cc(C(=O)N2CCC(c3cc(CN)ccc3F)CC2)c2c(Cl)ccc(C)c21` [Example 6, [4-(5-Aminomethyl-2-fluoro-phenyl)-piperidin-1-yl]-[4-chloro-1-(2-methoxy-ethyl)-7-methyl-1H-indol-3-yl]-methanone hydrochloride] is 19-fold lower in Ki: 649 nM for the first, 35 nM for the second. The second binds more tightly here.

Going from `COCCn1cc(C(=O)N2CCC(c3cc(CN)ccc3F)CC2)c2c(Cl)ccc(OC(F)(F)F)c21` [Example 12, [4-(5-Aminomethyl-2-fluoro-phenyl)-piperidin-1-yl]-[4-chloro-1-(2-methoxy-ethyl)-7-trifluoromethoxy-1H-indol-3-yl]-methanone hydrochloride] to `COCCn1cc(C(=O)N2CCC(c3cc(CN)ccc3F)CC2)c2c(F)ccc(OC(F)(F)F)c21` [Example 5, [4-(5-Aminomethyl-2-fluoro-phenyl)-piperidin-1-yl]-[4-fluoro-1-(2-methoxy-ethyl)-7-trifluoromethoxy-1H-indol-3-yl]-methanone hydrochloride], the Ki rises from 171 nM to 322 nM (1.9-fold).

`NCc1ccc(F)c(C2CCN(C(=O)c3cn(CCOC(F)(F)F)c4c(F)ccc(OC(F)(F)F)c34)CC2)c1` [Example 21, [4-(5-Aminomethyl-2-fluoro-phenyl)-piperidin-1-yl]-[7-fluoro-4-trifluoromethoxy-1-(2-trifluoromethoxy-ethyl)-1H-indol-3-yl]-methanone hydrochloride] and `CCCCn1cc(C(=O)N2CCC(c3cc(CN)ccc3F)CC2)c2c(OC(F)(F)F)ccc(F)c21` [Example 7, [4-(5-Aminomethyl-2-fluoro-phenyl)-piperidin-1-yl]-(1-butyl-7-fluoro-4-trifluoromethoxy-1H-indol-3-yl)-methanone hydrochloride] are within 1.5-fold of each other in Ki: 487 nM for the first, 365 nM for the second.

`Cc1ccc(F)c2c(C(=O)N3CCC(c4cc(CN)ccc4F)CC3)cn(CCOC(F)(F)F)c12` [Example 22] was tested, and the Ki was 731 nM.

With `COCCn1cc(C(=O)N2CCC(c3cc(CN)ccc3F)CC2)c2c(Cl)ccc(Cl)c21` [Example 8, [4-(5-Aminomethyl-2-fluoro-phenyl)-piperidin-1-yl]-[4,7-dichloro-1-(2-methoxy-ethyl)-1H-indol-3-yl]-methanone hydrochloride] the Ki was 134 nM and 74 nM.
For `CCCn1cc(C(=O)N2CCC(c3cc(CN)ccc3F)CC2)c2c(OC(F)(F)F)ccc(F)c21` [Example 11, [4-(5-Aminomethyl-2-fluoro-phenyl)-piperidin-1-yl]-(1-propyl-7-fluoro-4-trifluoromethoxy-1H-indol-3-yl)-methanone hydrochloride], the Ki was 208 nM and 186 nM.
`COCCn1cc(C(=O)N2CCC(c3cc(CN)ccc3F)CC2)c2c(OC(F)(F)F)ccc(Cl)c21` [Example 10, [4-(5-Aminomethyl-2-fluoro-phenyl)-piperidin-1-yl]-[7-chloro-1-(2-methoxy-ethyl)-4-trifluoromethoxy-1H-indol-3-yl]-methanone hydrochloride] was tested, and the Ki was 146 nM and 122 nM.
With `COCCn1cc(C(=O)N2CCC(c3cc(CN)ccc3F)CC2)c2c(F)ccc(Cl)c21` [Example 9, [4-(5-Aminomethyl-2-fluoro-phenyl)-piperidin-1-yl]-[7-chloro-4-fluoro-1-(2-methoxy-ethyl)-1H-indol-3-yl]-methanone hydrochloride] the Ki was 49 nM and 32 nM.

Same assay, conditions: substrate S2366 0.5 mM (2×Km), room temperature; Ki=IC50/(1+[Substrate]/Km); read-out: Tryptase Ki

`COCCn1cc(C(=O)N2CCC(c3cc(CN)ccc3F)CC2)c2c(F)ccc(F)c21` [Example 17, [4-(5-Aminomethyl-2-fluoro-phenyl)-piperidin-1-yl]-[4,7-difluoro-1-(2-methoxy-ethyl)-1H-indol-3-yl]-methanone] showed a Ki of 25 nM.
